Measurements published in paper PMC6099630, “Synthesis, Antiviral and Cytotoxic Activity of Novel Terpenyl Hybrid Molecules Prepared by Click Chemistry” (Molecules : A Journal of Synthetic Chemistry and Natural …, 2018).

Tests used:
HSV-1 KOS strain = assay: Cytopathic effect assay, HSV-1 KOS; format: cell-based, herpes simplex virus type 1 (HSV-1); conditions: Human alphaherpesvirus 1; inhibition of 50% viral cytopathic effect; m.o.i. 0.1 PFU/cell, 48 h p.i.; nonlinear regression
Protocol: (§1) The synthetic compounds and acyclovir (ACV, Sigma) were dissolved in dimethylsulfoxide (DMSO) and diluted with Eagle’s minimal essential medium supplemented with 1.5% inactivated fetal bovine serum (FBS) and 50 μg/mL gentamicin (MEM 1.5%).
(§2) Vero and Hep-2 cells were grown in MEM supplemented with 10% inactivated FBS and 50 µg/mL gentamicin and maintained in MEM 1.5%. Raw 264.7 cells were grown in Dulbecco’s Modified Eagle’s Medium (DMEM) supplemented with 10% FBS and 50 µg/mL gentamicin and maintained in DMEM 1.5%. C6 cells were grown in DMEM-F12 supplemented with 2.5% FBS50 µg/mL gentamicin and 15% horse serum (HS) and maintained in DMEM-F12 supplemented with 1.5% FBS. HSV-1 KOS, thymidine kinase-deficient (TK−) B2006 and Field strains of HSV-1 were used and propagated at low multiplicity of infection (m.o.i.) on Vero cells.
(§3) Cells grown in 96-well plates were infected or not with HSV-1 (KOS, Field and B2006 strains) at a m.o.i. of 0.1 PFU/cell. After 1-h adsorption at 37 °C, the inoculum was removed and medium containing or not the compounds was added, in triplicate. […] Then, cells were fixed with 10% formaldehyde for 15 min at room temperature, washed once with distilled water and stained with 0.05% crystal violet in 10% ethanol over 30 min. […] The absorbance of each well was measured on an Eurogenetics MPR-A 4i microplate reader using a test wave-length of 590 nm.

[1] = system: HSV-1 B2006 strain (thymidine kinase-deficient, TK−); assay: microbe, parasite or virus in culture; format: cell-based, herpes simplex virus type 1 (HSV-1); conditions: Human alphaherpesvirus 1, 48 h, read-out: EC50 B2006
Protocol: as §1, §2, §3

HSV-1 Field strain = assay: Cytopathic effect assay, HSV-1 Field; format: cell-based, herpes simplex virus type 1 (HSV-1); conditions: Human alphaherpesvirus 1; inhibition of 50% viral cytopathic effect; m.o.i. 0.1 PFU/cell, 48 h p.i.; nonlinear regression
Protocol: as §1, §2, §3

in vitro = format: cell-based; conditions: African green monkey
Protocol: as §1, §2
Cell viability was determined using the tetrazolium salt MTT (3-(4,5-dimethylthiazol-2-yl)-2,5-diphenyltetrazolium bromide, Sigma) according to the manufacturer’s instructions. […] The absorbance was measured on a MPR-A 4i microplate reader (Eurogenetics, Tipperary, Ireland) using a test wavelength of 570 nm and a reference wavelength of 630 nm. Results were expressed as a percentage of absorbance of treated cell cultures with respect to untreated ones. […]

SMILES: Nc1nc2c(ncn2COCCO)c(=O)[nH]1 [ACV, Acyclovir]
- EC50 (HSV-1 KOS strain): 8.2 ± 1 µM
- EC50 [1]: 50 ± 2 µM
- EC50 (HSV-1 Field strain): 73 ± 1 µM
- CC50 at 48 h (in vitro): > 1000 µM
